Laboratory results published in patent publication US9879036B2, “Mitochondrial aldehyde dehydrogenase-2 binding compounds and methods of use thereof” (Aviv Therapeutics, Inc., priority 2014, dated 2018).
Entries after “also recorded” stand apart in the source; their conditions may differ.

System: FANCA deficiency lymphocyte cell line (FANCA B-lymphocyte, GM13022)
Test: Proliferation of FANCA deficient lymphocytes under 4 HNE challenge (alamarBlue)
Type: cell-based
Description: FANCA deficiency lymphocyte cell line (Fanconi Anemia, Complementation Group A, FANCA B-lymphocyte, GM13022) was purchased from Coriell Cell Repositories (403 Haddon Ave, Camden, N.J. 08103).
Standard cell culture conditions were used in this experiment. The culture medium (CM) consisted of culture medium RPMI1640, 15% heat-inactivated FBS, 2 mM L-glutamine, 1% Pen/Strep. Cells were suspended in 10-20 ml CM in T25 tissue culture flask in an upright position and incubated in a 37° C., 5% CO2 incubator. Cells were counted daily and diluted with fresh CM to 3×10^5 cells/ml. Cells thawed and maintained in culture for 3-12 days were used in these studies.
Cell densities of FANCA lymphocytes were determined and cells were diluted in RPMI1640 medium containing 15% FBS, 2 mM L-glutamine, 1% Pen/Strep to desired cell density. 4000 cells in 50-75 μl were plated onto each well in total 48 wells in columns 3-10 and rows B-G. This plating arrangement provided 6-replicates per column for each experimental condition. Plate was then centrifuged at 500 rpm for 2 min to ensure better distribution of cells across the well. For background medium controls, equal volume (50-75 μl) of dilution medium were added to wells B2, C2, D2.
For minimizing cells/medium drying in sample wells, 150 μl of 1×DPBS was added to each well of the 45 wells surrounding the sample and control wells. Plate was then incubated in a 37° C. 5% CO2 incubator for at least 4 hours before addition of new reagent.
Compounds were diluted from 20 mM stocks in DMSO with RPMI1640 medium containing 15% FBS. RPMI1640 medium containing 15% FBS and corresponding volume of DMSO was used as controls.
4 HNE (64 mM in 100% ethanol) was diluted to desired concentrations with RPMI1640 base medium.
AlamarBlue was added to each well to final 9.1 or 10% of the total volume in each well. Plate was further incubated in the 37° C. 5% CO2 incubator. The alamarBlue assay is designed to measure quantitatively the proliferation of human and animal cell lines in culture versus incubation time period.
Plate was removed from the CO2 incubator at a pre-designated time and placed in the microplate reader. The fluorescence level in each well was monitored at Ex 554 nm and Em 590 nm. Afterwards the numeric numbers/units were used for data analyses.
Fluorescence units in all wells were acquired by the microplate reader at each time point. Data were then exported to scientist's computer equipped with SoftMax ProS software. The average of Background units (Blk, 3×) and the average of each sample set (6 replicates) were determined. For data collected at each time point (cell culture incubation period), the average of Blk units were subtracted from the average of each set of the Sample units. These “net fluorescence unit” data were then presented in a plot consisted of different culture incubation time periods (the x-axis) versus the corresponding net fluorescence units (y-axis).
The “net fluorescence units” of each sample set were also compared to those of the “control” at each time point. “Control fluorescence units” were considered to be 100% at all the time points. Each set of “net fluorescence units” were divided by the “Control fluorescent units” and multiplied by 100 to obtain corresponding percentages. These “relative percentage” data were then presented in a plot consisted of time points (the x-axis) versus the corresponding relative percentages to control of 100 (y-axis).
The inhibitory effect of 4 HNE on the proliferation of FANCA lymphocytes was examined. 4000 cells in 75 μl of RPMI1640 medium containing 15% FBS were plated onto each sample well in a 96-well poly D-lysine coated black/clear cell culture plate and the plate was incubated in a 37° C. 5% CO2 incubator for 7 hours.
Stock of 4 HNE at 64 mM was diluted with RPMI1640 medium to 10 μM, 20 μM, 30 μM, 40 μM, 60 μM, 80 μM, and 120 μM. […]

COc1ccc(CNC(=O)c2cc(-c3ncccc3CO)ccc2OCC2CC2)cc1F [AC6]
duration of cell-protective / cell growth promoting effect in FANCA cells: at least 48 hours | relative cell proliferation versus control without AC compounds (3.5 μM 4 HNE, 5 μM and 10 μM AC6, 10 μM AC32, 25 hours to 48 hours after 4 HNE treatment): higher levels of cell growth than “control”; also recorded: more efficient growth than control | cell proliferation rate (10 μM AC6, 6 μM 4 HNE, between 25 and 48 hours after 4 HNE treatment): an increase in the cell proliferation rate | FANCA-deficiency lymphocyte cell growth versus 4 HNE only or 2 μM ALDH2 activators (10 μM compound, pretreatment 2 hours before 6 μM 4 HNE challenge): higher levels of cell growth | FANCA-deficiency lymphocyte cell growth versus 4 HNE only (pretreatment 2 hours before 3.5 μM 4 HNE challenge, 2 to 10 μM compound): higher levels of cell growth; also recorded: higher efficacy than AC32
